From PMC12135066, “Design and Preclinical Evaluation of Novel uPAR-Targeting Radiopeptides Modified with an Albumin-Binding Entity” (Molecular Pharmaceutics, 2025)

How the values were obtained:
[1] = Stability of the radiopeptides in mouse blood plasma; details: mouse
[2] = Stability of the radiopeptides in human blood plasma; details: human
Method: The radiopeptides (50 MBq/nmol) stabilized with L-ascorbic acid were diluted in mouse and human blood plasma and incubated at 37 °C. Aliquots were taken after 1, 4, and 24 h and analyzed using reversed-phase thin-layer chromatography (TLC) (Supporting Information).
aProduct peak expressed as percentage of the sum of integrated peak areas of the entire chromatogram relative to
the value obtained immediately after labeling (set as 100%), average ± standard deviation (SD) (n=3).
Stability of the Radiopeptides in Mouse and Human Blood Plasma
Purpose: The stability of the radiopeptides was assessed in mouse and human blood plasma as an
indication for their in vivo stability.
Methods: The radiopeptides (50 MBq/nmol) stabilized with L-ascorbic acid were diluted in mouse
blood plasma (Lot: 32321, Rockland Immunochemicals Inc., U.S.A.) or in human blood plasma
(Stiftung Blutspende SRK Aargau -Solothurn, Switzerland) at a concentration of 10 MBq/200 µL and
incubated at 37 °C over a 24 h time period. Control samples were prepared by diluting the radiopeptides
in saline at the same activity concentration. Aliquots of each dilution were taken after 1 h, 4 h, and 24 h
(2 µL, ~100 kBq) and investigated employing thin layer chromatography (TLC) methods on reversed-
phase TLC plates (MERCK Analytical Chromatography, TLC Silica gel 60 RP -18 F254s) as stationary
phase and a 3/7 (v/v) mixture of acetonitrile /citrate buffer (0.1 M, pH 5.5) as mobile phase. A dilution
of [177Lu]LuCl3/HCl 0.04 M (10 MBq/200 µL) was added on each TLC plate. The developed and dried
TLC plates were exposed to a phosphor screen (Super resolution screen PSR10450013, PerkinElmer)
for 1 min. The screen was read with a Cyclone Plus phosphor imager (PerkinElmer) and the peak
quantification was performed using OptiQuant Software (version 5.0).

[3] = tested on: human serum albumin (HSA); assay: Albumin-binding properties in human blood plasma (ultrafiltration assay)
Method: (§1) The relative albumin-binding affinities of the radiopeptides in mouse and human blood plasma were determined using an ultrafiltration assay with Amicon centrifugal filters (cutoff of 10 kDa; Merck Millipore), as previously reported (Supporting Information). A fixed amount of the respective radiopeptide (15 μL, ∼300 kBq, 0.006 nmol) was added to a defined volume (150 μL) of mouse and human blood plasma dilutions to obtain [mouse serum albumin (MSA)]-to-[radiopeptide] and [human serum albumin (HSA)]-to-[radiopeptide] molar concentration ratios of 0.01–12,500 and 0.01–20,000, respectively. The data were analyzed using a semilogarithmic Hill plot with the maximum binding set as 100% (GraphPad Prism software, version 8.3.1).
(§2) Determination of the Albumin-Binding Properties
(§3) Purpose: The radiopeptides were investigated with regard to their albumin-binding capabilities in vitro
(§4) as a measure to predict blood retention in vivo.
(§5) Methods: The relative albumin-binding affinity of the radiopeptides in mouse blood plasma (Rockland
(§6) Immunochemicals, Inc., U.S.A.) and human blood plasma (Stiftung Blutspende SRK Aargau-
(§7) Solothurn, Switzerland) were determined using an ultrafiltration method. The amount of mouse serum
(§8) albumin (MSA) and human serum albumin (HSA) in mouse and human blood plasma was defined as
(§9) 550 μM and 800 μM, respectively, based on measurements using a dry chemistry analyzer (DRI-CHEM
(§10) 4000i, FUJIFILM, Japan). A fixed amount of radiopeptide (50 MBq/nmol, ~300 kBq, 15 μL, 0.006
(§11) nmol) was added to a defined volume (150 μL) of mouse and human blood plasma and various dilutions
(§12) thereof in PBS pH 7.4, resulting in defined [MSA]-to-[radiopeptide] or [HSA]-to-[radiopeptide] molar
(§13) concentration ratios ranging from 0.01 ‒12500 and 0.01‒20000, respectively, followed by incubation of
(§14) the samples at 37 °C for 30 min. Ice-cold PBS (150 µL, pH 7.4) was added before loading the blood
(§15) plasma samples on Amicon centrifugal filters (cut -off of 10 kDa; Merck Millipore) followed by
(§16) centrifugation (14000 rcf, 30 min, 4 °C) to allow the separation of the plasma protein -bound from the
(§17) plasma-unbound (free) fractions of each sample. The inserts of the filter devices were inverted and centrifuged at 200 rcf for 3 min to recover the protein -bound radiopeptide. The activity in the filtrate
(§18) and filter unit was measured in a γ-counter (1480 Wizard, PerkinElmer) and the counts were combined
(§19) assuming that the fraction retained in the filter membrane was not bound to proteins. The protein -bound
(§20) fraction was expressed as percentage of the whole activity (i.e. plasma protein -bound activity, activity
(§21) measured in the filtrate and activity measured in the filter (set as 100%) ). The data were analyzed using
(§22) a semi-logarithmic plot assuming a maximum binding of 100%. The Hill equation was fitted to the data
(§23) points and the half -maximum binding ( B50) based on the average curve obtained from three independent
(§24) experiments (GraphPad Prism software, version 8.3 .1). The relative albumin-binding affinit ies of the
(§25) reference compound, whose relative binding affinity was set as 1.0. The results were presented as the
(§26) B50 value obtained from the average curve from 3 independent experiments.

[4] = tested on: mouse serum albumin (MSA); assay: Albumin-binding properties in mouse blood plasma (ultrafiltration assay)
Method: as §1, §2, §3, §4, §5, §6, §7, §8, §9, §10, §11, §12, §13, §14, §15, §16, §17, §18, §19, §20, §21, §22, §23, §24, §25, §26

[5] = Radiolytic stability of the radiopeptides in saline with L-ascorbic acid; details: 50 MBq/nmol in saline, 150 MBq/300 µL, L-ascorbic acid (3 mg, 20 µL) and NaOAc (0.5 M, 30 µL), HPLC, product peak relative to t=0 (100%), average ± SD, n=3
Method: The radiolytic stability of the radiopeptides (50 MBq/nmol) in saline (150 MBq/300 μL) was assessed in the absence and presence of L-ascorbic acid (3 mg added in a volume of 20 μL). After an incubation period of 1, 4, and 24 h, aliquots of the solutions were analyzed using HPLC. The integrated peak area representing the intact radiopeptide was expressed as the percentage of the sum of all peaks of the chromatogram. The final amount of intact radiopeptide was expressed as the percentage of the product peak obtained at t = 0, which was set as 100% (Supporting Information).
The radiolytic stability of [177Lu]Lu-DOTA-AE105 and the new 177Lu-labeled uPAR-targeting
radiopeptides (50 MBq/nmol) was assessed in vitro in the formulated solution . The radiopeptide s were
diluted in saline to obtain an activity concentration of 150 MBq in 300 µL in the presence of L-ascorbic
acid (3 mg, 20 µL) and NaOAc (0.5 M, 30 µL) to compensate for the acidic pH. Aliquots of the dilutions
were analyzed using HPLC after incubation periods of 1 h, 4 h and 24 h . The integrated peak area
measured for the intact radioligand peak was expressed as the percentage of the sum of the integrated
peak areas of each peak present in the chromatogram. The final amount of intact radiopeptide at t = 1 h,
4 h and 24 h was expressed by correcting the obtained percentage of the product peak to this peak
obtained at t = 0, which was set as 100%.

[6] = Biodistribution studies in HEK-uPAR xenograft-bearing nude mice; details: female, mouse, 0.5 nmol, total radioactivity, 5 MBq, 0.5 nmol, decay-corrected, average ± SD, n=3 animals; for tissue uptake at 24 h: 24 h p.i.; for tissue uptake at 4 h: 4 h p.i.
Method: (§27) All applicable international, national, and/or institutional guidelines for the care and use of laboratory animals were followed, and the herein reported experiments were carried out according to the guidelines of the Swiss Regulations for Animal Welfare. The preclinical studies were ethically approved by the Cantonal Committee of Animal Experimentation and permitted by the responsible cantonal authorities (License No. 75721). Five-week-old female CD1/nude (Crl:CD1-Foxn ^ nu ) and female immunocompetent FVB (FVB/NCrl) mice were obtained from Charles River Laboratories (Sulzfeld, Germany). All mice were acclimatized for at least 7 days, receiving standard rodent chow ad libitum before being included in the reported studies. The CD1/nude mice were subcutaneously inoculated with HEK-uPAR cells (7 × 10^6 cells in 100 μL PBS) on the right shoulder. […] Typically, it took 3–11 weeks to reach xenograft volumes of 40–600 mm^3 at the time of testing the tissue distribution of the radiopeptides. The immunocompetent FVB mice were used for testing the in vivo stability of the radiopeptides.
(§28) The mice were injected with the radiopeptides (5 MBq, 0.5 nmol, 100 μL) in saline containing 0.05% BSA and sacrificed at 4 and 24 h after injection of the radiopeptides. Selected tissues and organs were collected, weighed, and measured with the γ-counter (1480 Wizard, PerkinElmer). […] A p-value of <0.05 was considered a statistically significant difference (GraphPad Prism software, version 8.3.1).
(§29) Decay-corrected data is shown as average ± SD of n = 3 animals of % injected activity per gram (IA/g) tissue.

[7] = tested on: HEK-uPAR xenograft-bearing nude mice; assay: as above; details: average ± SD, n=3 animals
Method: as §27, §28, §29

[8] = n-Octanol/PBS distribution coefficients (logD values); details: n-octanol/PBS pH 7.4, pH 7.4
[9] = CD1/nude, blood, 5 MBq (0.5 nmol)
[10] = CD1/nude, bone, 5 MBq (0.5 nmol)
[11] = CD1/nude, brain, 5 MBq (0.5 nmol)
[12] = CD1/nude, heart, 5 MBq (0.5 nmol)
[13] = CD1/nude, intestines, 5 MBq (0.5 nmol)
[14] = CD1/nude, kidneys, 5 MBq (0.5 nmol)
[15] = CD1/nude, liver, 5 MBq (0.5 nmol)
[16] = CD1/nude, lung, 5 MBq (0.5 nmol)
[17] = CD1/nude, muscle, 5 MBq (0.5 nmol)
[18] = CD1/nude, pancreas, 5 MBq (0.5 nmol)
[19] = CD1/nude, salivary glands, 5 MBq (0.5 nmol)
[20] = CD1/nude, spleen, 5 MBq (0.5 nmol)
[21] = CD1/nude, stomach, 5 MBq (0.5 nmol)

In the case of CC(C)C[C@H](NC(=O)[C@H](Cc1ccc(O)cc1)NC(=O)[C@@H](CCCNC(=N)N)NC(=O)[C@@H](CO)NC(=O)[C@H](Cc1ccccc1)NC(=O)[C@H](CC1CCCCC1)NC(=O)[C@H](CC(=O)O)NC(=O)CCOCCOCCOCCOCCNC(=O)[C@H](CCCCNC(=O)CCCc1ccc(I)cc1)NC(=O)CN1CCN(CC(=O)O)CCN(CC(=O)O)CCN(CC(=O)O)CC1)C(=O)N[C@@H](Cc1c[nH]c2ccccc12)C(=O)N[C@@H](CO)C(N)=O [[^177Lu]Lu-uPAR-05, metal not drawn], the remaining at 1 h, 10 MBq/200 µL ([1]; blood plasma) is reported as 99 ± 1%, the remaining at 24 h, 10 MBq/200 µL ([1]; blood plasma) is reported as 98 ± 2% and the remaining at 4 h, 10 MBq/200 µL ([1]; mouse blood plasma) is reported as 98 ± 2%. For the same compound, the remaining at 1 h, 10 MBq/200 µL ([2]; blood plasma) was 99 ± 1%, the remaining at 24 h, 10 MBq/200 µL ([2]; blood plasma) was 99 ± 1% and the remaining at 4 h, 10 MBq/200 µL ([2]; human blood plasma) was 99 ± 1%. The “fold lower albumin-binding affinity than [177Lu]Lu-uPAR-01” value ([3]; human blood plasma, ultrafiltration) was 2.4 fold, the “Relative albumin-binding affinity, human blood plasma” value ([3]; ultrafiltration (Amicon, 10 kDa), human blood plasma dilutions in PBS pH 7.4, [HSA]-to-[radiopeptide] 0.01–20000, 0.006 nmol, 37 °C 30 min, γ-counter, inverse ratio of B50, [177Lu]Lu-uPAR-01 set as 1.00, average curve of 3 experiments) was 0.43 and the “fold lower albumin-binding affinity than [177Lu]Lu-uPAR-01” value ([4]; mouse blood plasma, ultrafiltration) was 1.6 fold. For the same compound, the “Relative albumin-binding affinity, mouse blood plasma” value ([4]; ultrafiltration (Amicon, 10 kDa), mouse blood plasma dilutions in PBS pH 7.4, [MSA]-to-[radiopeptide] 0.01–12500, 0.006 nmol, 37 °C 30 min, γ-counter, inverse ratio of B50, [177Lu]Lu-uPAR-01 set as 1.00, average curve of 3 experiments) was 0.61, the “radiolytic stability, % intact radiopeptide” value ([5]; 1 h) was 99 ± 2% and the “radiolytic stability, % intact radiopeptide” value ([5]; 4 h) was 97 ± 1%. The “radiolytic stability after 24 h, intact radiopeptide [%]” value ([5]; 24 h) was 93 ± 1%, the tissue uptake at 24 h ([6]; CD1/nude (Crl:CD1-Foxn nu), HEK-uPAR xenograft, HEK-uPAR xgft) was 3.1 ± 0.7 %ID/g and the tissue uptake at 4 h ([6]; CD1/nude, HEK-uPAR xenograft, 5 MBq (0.5 nmol), HEK-uPAR xgft) was 5.1 ± 1 %ID/g. For the same compound, the tissue uptake at 4 h [6, 9] was 12 ± 1 %ID/g, the tissue uptake at 24 h [6, 9] was 4.6 ± 0.3 %ID/g and the tissue uptake at 4 h [6, 10] was 1.1 ± 0.1 %ID/g. It also gave a tissue uptake at 24 h [6, 10] of 0.67 ± 0.06 %ID/g, a tissue uptake at 4 h [6, 11] of 0.27 ± 0.01 %ID/g and a tissue uptake at 24 h [6, 11] of 0.11 ± 0.02 %ID/g. The tissue uptake at 4 h [6, 12] was 4.1 ± 0.2 %ID/g, the tissue uptake at 24 h [6, 12] was 1.6 ± 0.1 %ID/g and the tissue uptake at 4 h [6, 13] was 1.6 ± 0.1 %ID/g. For the same compound, the tissue uptake at 24 h [6, 13] was 0.73 ± 0.07 %ID/g, the tissue uptake at 4 h [6, 14] was 3.6 ± 0.2 %ID/g and the tissue uptake at 24 h [6, 14] was 1.6 ± 0.1 %ID/g. It also gave a tissue uptake at 4 h [6, 15] of 5.2 ± 0.6 %ID/g, a tissue uptake at 24 h [6, 15] of 1.1 ± 0.1 %ID/g and a tissue uptake at 4 h [6, 16] of 7 ± 0.5 %ID/g. For the same compound, the tissue uptake at 24 h [6, 16] was 2.6 ± 0.4 %ID/g, the tissue uptake at 4 h [6, 17] was 1.1 ± 0.1 %ID/g and the tissue uptake at 24 h [6, 17] was 0.41 ± 0.04 %ID/g. For the same compound, the tissue uptake at 4 h [6, 18] was 1.4 ± 0.2 %ID/g, the tissue uptake at 24 h [6, 18] was 0.62 ± 0.07 %ID/g and the tissue uptake at 4 h [6, 19] was 2.5 ± 0.3 %ID/g. For the same compound, the tissue uptake at 24 h [6, 19] was 1.1 ± 0.1 %ID/g, the tissue uptake at 4 h [6, 20] was 1.5 ± 0.1 %ID/g and the tissue uptake at 24 h [6, 20] was 0.82 ± 0.1 %ID/g. For the same compound, the tissue uptake at 4 h [6, 21] was 1.3 ± 0.1 %ID/g, the tissue uptake at 24 h [6, 21] was 0.64 ± 0.01 %ID/g and the Xenograft-to-blood ratio ([7]; 4 h p.i.) was 0.42 ± 0.07. The Xenograft-to-kidney ratio ([7]; 4 h p.i.) was 1.4 ± 0.2, the Xenograft-to-liver ratio ([7]; 4 h p.i.) was 0.98 ± 0.10 and the Xenograft-to-blood ratio ([7]; 24 h p.i.) was 0.66 ± 0.12. The Xenograft-to-kidney ratio ([7]; 24 h p.i.) was 1.9 ± 0.3, the Xenograft-to-liver ratio ([7]; 24 h p.i.) was 2.9 ± 0.3 and the logD [8] was 0.24 ± 0.09.
